Results taken from PMC5147891 (PLoS ONE, 2016).
Read-outs that look alike come from different tables or passages of the source. Marks after values point to notes of the source that are not given here.

Experiments:
[1] = chronic administration, cited from earlier work
[2] = target: T1, hCB2 receptors (Homo sapiens, UniProt P34972); experiment: [35S]GTPγS binding (G-protein activity), CHO-hCB2 membranes; type: biochemical; settings: 10 μM
T1 construct: expressed in transfected cells
Procedure: (§1) CHO-hCB1, CHO-hCB2 and CHO-hMOR cells were homogenized individually with 10 complete strokes utilizing a 7ml Dounce glass homogenizer in an ice-cold buffer containing 50 mM HEPES pH 7.4, 3 mM MgCl2, and 1 mM EDTA as described previously. The homogenized samples were then centrifuged at 40,000 × g for 10 min at 4°C. Supernatants were discarded; the pellets re-suspended in the buffer, homogenized again, and centrifuged similarly twice more. After the final centrifugation step, supernatants were discarded and pellets were re-suspended in ice-cold 50 mM HEPES, pH 7.4 to achieve an approximate protein concentration of 10 mg/ml. Membrane homogenates were divided into aliquots and stored at −80°C for future use. A small aliquot of each membrane preparation was removed prior to freezing and the protein concentration was determined using BCA Protein Assay (Thermo Fisher Scientific, Waltham, MA).
The GTPγS binding assay to measure G-protein activation was performed as previously described. Briefly, in a total volume of 1 ml, 25 μg of CHO-hCB2, 50 μg of CHO-hCB1-Rx or 50 μg of CHO-hMOR membranes homogenates were added to each reaction mixture containing 0.1 nM [^35S]GTPγS, 20 mM HEPES, 10 mM MgCl2, 100 mM NaCl, 10 μM GDP, 0.1% bovine serum albumin and the indicated concentrations of ligand to be examined. After mixing, reaction mixtures were incubated at 30°C for 30 min. […] Nonspecific binding was defined by the amount of radioactivity remaining in the presence of 10 μM non-radiolabeled GTPγS. […] Four ml of scintiverse scintillation fluid (Fisher Scientific, Waltham, MA) was added to the filters and the amount of radioactivity was quantified 24 hr later utilizing liquid scintillation spectrophotometry.
Data presented are expressed as mean ± standard error of the mean (S.E.M.) for a minimum of three experiments, each performed in triplicate. […] To compare three or more groups, statistical significance of the data was determined by a one-way ANOVA, followed by post hoc comparisons using a Tukey's or Dunnett's test. […]

[3] = target: T1, hCB2 receptors; experiment: Forskolin-stimulated intracellular [3H]cAMP in intact CHO-hCB2 cells; type: cell-based; settings: for EMAX, intracellular [3H]cAMP: forskolin-stimulated cAMP; for EMAX, intracellular [3H]cAMP / EC50: values only approximate
Procedure: CHO-hCB1, CHO-hCB2, or CHO-hMOR cells were plated separately in normal culture media into 24-well plates at a density of 6 × 10^6 cells/plate and incubated overnight at 37°C in 5% CO2. As previously described, the following day culture media was removed from each well and replaced with 500 μl pre-incubation mixture containing either HAM’s F-12 K (CHO-hCB1) or DMEM (CHO-hCB2 and CHO-hMOR) with 0.9% NaCl, 500 μM 3-isobutyl-1-methylxathine (IBMX) and 2 μCi/well [^3H]adenine. Cells were incubated for 3–5 hr at 37°C. The pre-incubation mix was removed and indicated concentrations of drugs were added to the individual wells for 15 min at 37°C in a Krebs-Ringer-HEPES solution (10 mM HEPES, 110mM NaCl, 25mM Glucose, 55mM Sucrose, 5mM KCl, 1mM MgCl2, 1.8 mM CaCl2, pH 7.4) containing IBMX, and 10 μM forskolin. Reactions were terminated by adding 50 μl 2.2N HCl and [^3H]cAMP was isolated by employing alumina column chromatography. Radioactivity contained in 4 ml of the final column eluate was counted by a Packard-Tri-carb 2100/TR liquid scintillation counter after adding 10 ml of liquid scintillation cocktail.
To determine if modulation of adenylyl cyclase activity by SERMs was mediated through CB2 receptors coupling to Gi/o proteins, additional cAMP assays were conducted following overnight treatment with pertussis toxin as described elsewhere. Briefly, CHO-hCB2 cells were seeded into 24-well plates as described above in normal culture media containing 100 ng/ml of pertussis toxin and incubated overnight at 37°C. Pertussis toxin-treated media was removed and measurement of intracellular [^3H]cAMP levels following indicated SERM treatments was conducted as described above.
(§2) Data presented are expressed as mean ± standard error of the mean (S.E.M.) for a minimum of three experiments, each performed in triplicate. GraphPad Prism version 6.0f (GraphPad Software Inc.) was used for all curve-fitting and statistical analyses. Non-linear regression for one-site competition was used to determine the IC50 for competition receptor binding. IC50 values were subsequently converted to Ki values (a measure of receptor affinity) by the Cheng-Prusoff equation [31]. Non-linear regression was also used to analyze concentration-effect curves to determine the EC50 or IC50 (measures of potency) and Emax or Imax (measures of efficacy) for GTPγS binding and adenylyl cyclase experiments, respectively. All dissociation constants and measurements of potency were converted to pKi, pKB, pEC50, or pIC50 values by taking the negative log of each value so that parametric tests could be used for statistical comparisons. To compare three or more groups, statistical significance of the data was determined by a one-way ANOVA, followed by post hoc comparisons using a Tukey's or Dunnett's test. To compare two groups, the non-paired Student's t-test was used.

[4] = target: T1, hCB2 receptors; experiment: Antagonism of CP-55,940 inhibition of AC activity in intact CHO-hCB2 cells; type: cell-based
Procedure: After overnight seeding into 24-well plates and pre-incubation of cells with [^3H]adenine for 3–5 hr at 37°C as described above, media was removed and the indicated concentration of the SERM to be tested was added to all wells of the 24-well plate. […] Reactions were terminated and [^3H]cAMP isolated as described above.
as §2

[5] = target: T2, hCB1 receptors (Homo sapiens, UniProt P21554); experiment: Competition receptor binding with [3H]CP-55,940, CHO-hCB1 membranes; settings: for Ki: [3H]CP-55,940 binding, CHO-hCB1, 0.2 nM [3H]CP-55,940, CHO-hCB1 membranes; for Selectivity (CB1/CB2): ratio hCB1-Ki/hCB2-Ki
T2 sequence (P21554 whole entry): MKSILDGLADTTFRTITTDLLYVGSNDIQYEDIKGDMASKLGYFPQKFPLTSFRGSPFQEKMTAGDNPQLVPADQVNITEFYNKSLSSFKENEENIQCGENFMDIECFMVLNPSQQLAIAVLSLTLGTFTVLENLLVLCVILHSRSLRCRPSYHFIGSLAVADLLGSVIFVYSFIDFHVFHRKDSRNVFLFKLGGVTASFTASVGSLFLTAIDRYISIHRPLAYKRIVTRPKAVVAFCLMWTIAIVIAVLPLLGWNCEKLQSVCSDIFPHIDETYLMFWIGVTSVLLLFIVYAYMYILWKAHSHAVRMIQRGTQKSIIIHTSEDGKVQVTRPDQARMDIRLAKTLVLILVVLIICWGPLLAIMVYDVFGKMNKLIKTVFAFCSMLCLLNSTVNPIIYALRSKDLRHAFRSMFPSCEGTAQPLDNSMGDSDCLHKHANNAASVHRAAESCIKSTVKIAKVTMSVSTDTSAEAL
Procedure: as §1
(§3) Competition receptor binding was performed as reported earlier. […] The total volume of the incubation mixture was 1 ml. All reactions were mixed and allowed to reach equilibrium binding by incubation at room temperature for 90 min. […] Binding was terminated by rapid vacuum filtration through glass fiber filters (Brandel, Gaithersburg, MD), followed by four 5 ml washes of ice-cold 50 mM Tris-HCl (pH 7.4) buffer containing 0.1% bovine serum albumin. Four ml of scintiverse scintillation fluid (Fisher Scientific, Waltham, MA) was added to the filters and the amount of radioactivity was quantified 24 hr later utilizing liquid scintillation spectrophotometry.
as §2

[6] = target: T1, hCB2 receptors; experiment: Competition receptor binding with [3H]CP-55,940, CHO-hCB2 membranes; settings: [3H]CP-55,940 binding, CHO-hCB2, 0.2 nM [3H]CP-55,940, CHO-hCB2 membranes
Procedure: as §1, §3, §2

[7] = target: T2, hCB1 receptors; experiment: [35S]GTPγS binding (G-protein activity), CHO-hCB1 membranes; type: biochemical; settings: 10 μM
Procedure: as §1
The GTPγS binding assay to measure G-protein activation was performed as previously described. Briefly, in a total volume of 1 ml, 25 μg of CHO-hCB2, 50 μg of CHO-hCB1-Rx or 50 μg of CHO-hMOR membranes homogenates were added to each reaction mixture containing 0.1 nM [^35S]GTPγS, 20 mM HEPES, 10 mM MgCl2, 100 mM NaCl, 10 μM GDP, 0.1% bovine serum albumin and the indicated concentrations of ligand to be examined. After mixing, reaction mixtures were incubated at 30°C for 30 min. […] Nonspecific binding was defined by the amount of radioactivity remaining in the presence of 10 μM non-radiolabeled GTPγS. Reactions were terminated by rapid vacuum filtration through glass fiber filters followed by four washes with ice cold 50 mM HEPES (pH 7.4) containing 0.1% bovine serum albumin. Four ml of scintiverse scintillation fluid (Fisher Scientific, Waltham, MA) was added to the filters and the amount of radioactivity was quantified 24 hr later utilizing liquid scintillation spectrophotometry.
as §2, with “All dissociation constants and measurements of potency were converted to pKi, pKB, pEC50, or pIC50 values by taking the negative log of each value so that parametric tests could be used for statistical comparisons.” left out, “To compare two groups, the non-paired Student's t-test was used.” left out

[8] = increase of forskolin-stimulated cAMP

T1 sequence (P34972 whole entry): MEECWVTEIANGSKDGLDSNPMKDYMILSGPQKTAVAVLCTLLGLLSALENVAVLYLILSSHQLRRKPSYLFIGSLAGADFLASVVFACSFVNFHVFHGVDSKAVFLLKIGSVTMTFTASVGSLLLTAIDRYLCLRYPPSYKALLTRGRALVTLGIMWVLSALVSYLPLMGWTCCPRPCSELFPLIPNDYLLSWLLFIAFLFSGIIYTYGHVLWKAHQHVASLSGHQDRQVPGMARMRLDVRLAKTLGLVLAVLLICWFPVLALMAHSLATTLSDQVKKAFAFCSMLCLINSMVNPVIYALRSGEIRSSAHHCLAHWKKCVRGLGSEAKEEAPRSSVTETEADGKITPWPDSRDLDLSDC

Row | SMILES | Concentration reached in serum ([1]; ref [40]) | Levels accumulated in brain and breast tissue ([1]; ref [65], [66]) | IMAX, decrease in basal G-protein activity ([35S]GTPγS binding) [2] | EMAX, intracellular [3H]cAMP [3] | pEC50, intracellular [3H]cAMP ([3]; increase of forskolin-stimulated cAMP, mean ± SEM) | EC50 [3, 8] | Type of antagonism of CP-55,940 [4] | IMAX of CP-55,940, intracellular [3H]cAMP ([4]; CP-55,940 alone or after pre-incubation with AM-630 1 μM, Z-Tam 10 μM, Z-4OHT 10 μM, Z-End 30 μM) | pKb ([4]; against CP-55,940, AM-630 1 μM, Z-Tam 10 μM, Z-4OHT 10 μM) | Kb ([4]; against CP-55,940, AM-630 1 μM, Z-Tam 10 μM, Z-4OHT 10 μM, listed as +AM-630, read-out: Kb (antagonist dissociation constant)) | Kb ([4]; against CP-55,940, AM-630 1 μM, Z-Tam 10 μM, Z-4OHT 10 μM, read-out: Kb (antagonist dissociation constant)) | Ki [5] | Selectivity (CB1/CB2) [5] | Ki [6] | Effect on basal [35S]GTPγS binding [7]
1 | CC/C(=C(\c1ccc(O)cc1)c1ccc(OCCN(C)C)cc1)c1ccccc1 [4OHT, 4-hydroxytamoxifen] | high nanomolar concentrations | micromolar range | – | – | – | – | – | – | – | – | – | – | – | – | –
2 | COc1ccc(C(=O)c2c(C)n(CCN3CCOCC3)c3cc(I)ccc23)cc1 [AM-630] | – | – | 28.7% | 214 ± 6.5% | 6.40 ± 0.096 | 398 nM | parallel rightward-shift | 31.7 ± 0.3^a % | 7.26 ± 0.064 | 55 nM | 55.4 nM | – | – | – | –
3 | CC/C(=C(\c1ccc(O)cc1)c1ccc(OCCN(C)C)cc1)c1ccccc1 [E-4OHT, 4-hydroxytamoxifen] | – | – | – | 352 ± 52^a^,^b % | – | 9120 nM | – | – | – | – | – | 1240 nM | 1.30 | 957 nM | did not significantly alter
4 | CC/C(=C(/c1ccc(O)cc1)c1ccc(OCCNC)cc1)c1ccccc1 [E-End, 4-hydroxy-N-desmethyl tamoxifen] | – | – | – | 239 ± 22^b % | – | 10700 nM | – | – | – | – | – | 1390 nM | 0.59 | 2350 nM | –
